Measured values as given in patent publication US5696112A, “Fused heterocyclic azepines as vasopressin antagonists” (American Cyanamid Company, priority 1995, dated 1997).

Experiments:
[1] = target: T1, Rat Kidney Medullary V2 Receptors (vasopressin V2) (Rattus norvegicus, UniProt Q00788); assay: Binding Assay to Rat Kidney Medullary V2 Receptors; conditions: rat kidney medullary V2, [3H]Arg8-vasopressin
T1 construct: Medullary tissues from rat kidneys are dissected out; from tissue; host or cells: rat kidney medulla membranes
T1 sequence (Q00788 whole entry): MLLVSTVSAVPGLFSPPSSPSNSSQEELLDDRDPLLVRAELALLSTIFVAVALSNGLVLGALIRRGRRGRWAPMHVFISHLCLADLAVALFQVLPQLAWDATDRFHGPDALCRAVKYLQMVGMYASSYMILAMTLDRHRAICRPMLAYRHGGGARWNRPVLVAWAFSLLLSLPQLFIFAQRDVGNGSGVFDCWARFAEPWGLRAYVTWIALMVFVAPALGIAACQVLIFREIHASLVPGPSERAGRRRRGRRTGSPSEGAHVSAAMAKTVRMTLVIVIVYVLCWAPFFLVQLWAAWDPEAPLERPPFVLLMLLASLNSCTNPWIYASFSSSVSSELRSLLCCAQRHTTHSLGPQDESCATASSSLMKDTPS
Method: Binding Assay to Rat Kidney Medullary V2 Receptors
Medullary tissues from rat kidneys are dissected out, cut into small pieces and let soak in a […] sodium chloride solution containing 1.0 mM EDTA with many changes of the liquid phase, until the solution is clear of blood. The tissue is homogenized in a 0.25M sucrose solution containing 1.0 mM EDTA and 0.1 mM PMSF using a Potter-Elvehjem homogenizer with a teflon pestle. The homogenate is filtered through several layers (4 layers) of cheese cloth. The filtrate is rehomogenized using a dounce homogenizer, with a tight fitting pestle. The final homogenate is contrifuged at 1500×g for 15 min. The nuclear pellet is discarded and the supernatant fluid recentrifuged at 40,000×g for 30 min. The resulting pellet formed contains a dark inner part with the exterior, slightly pink. The pink outer part is suspended in a small amount of 50.0 mMTris.HCl buffer, pH 7.4. The protein content is determined by the Lowry's method (Lowry et al, J. Biol. Chem., 1953). The membrane suspension is stored at -70° C., in 50.0 mMTris.HCl, containing 0.2% inactivated BSA and 0.1 mM PMSF in aliquots of 1.0 ml containing 10.0 mg protein per ml of suspension until use in subsequent binding experiments.
For binding experiments, the following is added in μl volume to wells of a 96 well format of a microtiter plate: 100.0 μl of 100.0 mM Tris.HCl buffer containing 0.2% heat inactivated BSA, 10.0 mM MgCl2 and a mixture of protease inhibitors: leupeptin, 1.0 mg %; aprotinin, 1.0 mg %; 1,10-phenanthroline, 2.0 mg %; trypsin inhibitor, 10.0 mg % and 0.1 mM PMSF, 20.0 μl of [^3 H]Arginine^8, vasopressin (S.A. 75.0 Ci/mmole) at 0.8 nM and the reaction initiated by the addition of 80.0 μl of tissue membranes (200.0 μg tissue protein). The plates are left undisturbed on the bench top for 120 min. to reach equilibrium. Non-specific binding is assessed in the presence of 1.0 μM of unlabeled ligand, added in 20 μl volume. For test compounds, these are solubilized in 50% dimethylsulfoxide (DMSO) and added in 20.0 μl volume to a final incubation volume of 200 μl. Upon completion of binding, the content of each well is filtered off, using a Brandel® cell Harvester (Gaithersburg, Md.). The radioactivity trapped on the filter disk by the ligand-receptor complex is assessed by liquid scintillation counting in a Packard LS Counter, with an efficiency of 65% for tritium. The data are analyzed for IC50 values by the LUNDON-2 program for competition (LUNDON SOFTWARE, OH).

oxytocin receptors = target: T2, oxytocin receptors (Rattus norvegicus, UniProt P70536); assay: Oxytocin Receptor Binding; parameters: species or system Sprague-Dawley rats; conditions: 10 μM
T2 construct: The uteri are dissected out, cleaned of fat and connective tissues; from tissue; host or cells: uterus membranes of DES-treated female Sprague-Dawley rats
T2 sequence (P70536 1-388): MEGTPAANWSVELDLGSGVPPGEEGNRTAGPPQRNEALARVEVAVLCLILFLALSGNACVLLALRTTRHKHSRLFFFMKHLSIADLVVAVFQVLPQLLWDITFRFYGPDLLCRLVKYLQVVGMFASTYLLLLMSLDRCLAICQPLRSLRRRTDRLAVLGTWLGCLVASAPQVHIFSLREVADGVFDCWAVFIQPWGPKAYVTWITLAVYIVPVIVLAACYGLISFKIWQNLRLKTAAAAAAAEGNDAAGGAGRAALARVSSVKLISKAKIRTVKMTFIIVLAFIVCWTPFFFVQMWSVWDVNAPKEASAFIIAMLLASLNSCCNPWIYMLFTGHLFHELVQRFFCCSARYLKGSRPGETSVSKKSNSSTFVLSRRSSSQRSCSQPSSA
Method: Oxytocin Receptor Binding
Female Sprague-Dawley rats weighing approximately 200-250 g are injected intramuscularly (i.m.) with 0.3 mg/kg of body weight of diethylstilbestrol (DES). The rats are sacrificed 18 hours later under pentobarbital anesthesia. The uteri are dissected out, cleaned of fat and connective tissues and rinsed in 50 ml of normal saline. The tissue pooled from six rats is homogenized in 50 ml of 0.01 mMTris.HCl, containing 0.5 mM dithiothreitol and 1.0 mM EDTA, adjusted to pH 7.4, using a polytron at setting 6 with three passes of 10 sec each. The homogenate is passed through two (2) layers of cheesecloth and the filtrate centrifuged at 1000×g for 10 min. The clear supernatant is removed and recentrifuged at 165,000×g for 30 min. The resulting pellet containing the oxytocin receptors is resuspended in 50.0 mM Tris.HCl containing 5.0 mM MgCl2 at pH 7.4, to give a protein concentration of 2.5 mg/ml of tissue suspension. This preparation is used in subsequent binding assays with [^3 H]Oxytocin.
Binding of 3,5-[^3 H]Oxytocin ([^3 H]OT) to its receptors is done in microtiter plates using [^3 H]OT, at various concentrations, in an assay buffer of 50.0 mM Tris.HCl, pH 7.4 and containing 5.0 mM MgCl2, and a mixture of protease inhibitors: BSA, 0.1 mg; aprotinin, 1.0 mg; 1,10-phenanthroline, 2.0 mg; […], 10.0 mg; and PMSF, 0.3 mg per 100 ml of buffer solution. Nonspecific binding is determined in the presence of 1.0 uM unlabeled OT. The binding reaction is terminated after 60 min., at 22° C., by rapid filtration through glass fiber filters using a Brandel® cell harvester (Biomedical Research and Development Laboratories, Inc., Gaithersburg, Md.). Competition experiments are conducted at equilibrium using 1.0 nM [^3 H]OT and varying the concentration of the displacing agents. The concentrations of agent displacing 50% of [^3 H]OT at its sites (IC50) are calculated by a computer assisted LUNDON-2 program (LUNDON SOFTWARE INC., Ohio, USA).

[2] = target: T3, Vasopressin V1 Receptor Subtype in Human Platelet Membranes (Homo sapiens, UniProt P37288); assay: Binding to V1 Receptor Subtype in Human Platelet membranes
T3 construct: tissue Hudson Valley Blood Services, Westchester Medical Center, Valhalla, N.Y; host or cells: human platelet membranes from frozen platelet rich plasma
T3 sequence (P37288 whole entry): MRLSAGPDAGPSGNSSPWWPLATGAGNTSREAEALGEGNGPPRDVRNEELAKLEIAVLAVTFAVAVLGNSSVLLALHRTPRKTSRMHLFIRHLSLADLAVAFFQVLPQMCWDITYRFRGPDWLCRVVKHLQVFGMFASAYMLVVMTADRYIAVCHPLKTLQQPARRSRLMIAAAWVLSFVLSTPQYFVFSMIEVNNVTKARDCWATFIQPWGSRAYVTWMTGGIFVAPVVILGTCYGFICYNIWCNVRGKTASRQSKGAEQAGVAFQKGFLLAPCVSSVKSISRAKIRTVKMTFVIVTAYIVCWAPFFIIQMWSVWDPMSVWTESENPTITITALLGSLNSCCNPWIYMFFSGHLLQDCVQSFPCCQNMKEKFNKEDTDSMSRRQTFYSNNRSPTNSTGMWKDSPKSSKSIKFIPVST
Method: Radioligand Binding Experiments with Human Platelet Membranes
Platelet Source: Hudson Valley Blood Services, Westchester Medical Center, Valhalla, N.Y.
Platelet Membrane Preparation:
Frozen platelet rich plasma (PRP), received from the Hudson Valley Blood Services are thawed to room temperature. The tubes containing the PRP are centrifuged at 16,000×g for 10 min. at 4° C. and the supernatant fluid discarded. The platelets resuspended in an equal volume of 50.0 mMTris.HCl, pH 7.5 containing 120 mM NaCl and 20.0 mM EDTA. The suspension is recentrifuged at 16,000×g for 10 min. This washing step is repeated one more time. The wash is discarded and the lysed pellets homogenized in low ionic strength buffer of Tris.HCl, 5.0 mM, pH 7.5 containing 5.0 mM EDTA. The homogenate is centrifuged at 39,000×g for 10 min. The resulting pellet is resuspended in Tris.HCl buffer, 70.0 mM, pH 7.5 and recentrifuged at 39,000×g for 10 min. The final pellet is resuspended in 50.0 mM Tris.HCl buffer pH 7.4 containing 120 mM NaCl and 5.0 mM HCl to give 1.0-2.0 mg protein per ml of suspension.
Binding to Vasopressin V1 Receptor Subtype in Human Platelet Membranes:
In wells of a 96 well format microtiter plate, add 100 μl of 50.0 mM Tris.HCl buffer containing 0.2% BSA and a mixture of protease inhibitors (aprotinin, leupeptin etc.). Then add 20 μl of [^3 H]Ligand: (Manning or Arg^8 Vasopressin), to give final concentrations ranging from 0.01 to 10.0 nM. Initiate the binding by adding 80.0 μl of platelet suspension (approx. 100 μg protein). Mix all reagents by pipetting the mixture up and down a few times. Non-specific binding is measured in the presence of 1.0 μM of unlabeled ligand (Manning or Arg^8 Vasopressin). Let the mixture stand undisturbed at room temperature for ninety (90) min. Upon this time, rapidly filter off the incubate under vacuum suction over GF/B filters, using a Brandel® Harvester. Determine the radioactivity caught on the filter disks by the addition of liquid scintillant and counting in a liquid scintillator

Cc1ccc(F)cc1C(=O)Nc1ccc(C(=O)N2CCC=Cc3sccc32)c(Cl)c1 [Example 184, N-[4-[(5,6-Dihydro-4H-thieno[3,2-b]azepin-4-yl)carbonyl]-3-chlorophenyl]-5-fluoro-2-methylbenzamide]
IC50 [1]: 0.03 µM | inhibition at 10 µM (oxytocin receptors): 76% | IC50 [2]: 1.3 µM
